Experimental findings from patent US11214803B2, “Modulators of YAP1 expression” (Ionis Pharmaceuticals, Inc., priority 2019, dated 2022) are described below.

The IC50 is the concentration that gives 50% inhibition. Low readings indicate higher potency, high ones lower potency.

Strand notation (5' to 3'): a small letter for the sugar, then the base; units joined by * are phosphorothioate-linked, units joined directly phosphodiester-linked; [ ] holds rarer units or linkages, { } end groups; capitals alone tell only the bases. k = constrained ethyl (cEt); [5mC] = 5-methylcytosine; d = 2'-deoxy (DNA)

The test system of the data set is Yap1 mRNA. The data set is described as follows: Dose-dependent inhibition of human Yap1 in A-431 cells (Example 7, 10,000 cells per well, RTS36584). The settings on record: free uptake. The class given is cell-based. Summed up:
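A-431 cells at 10,000 per well received modified oligonucleotides by free uptake at several doses. After about 48 hours, Yap1 mRNA was quantified with primer-probe set RTS36584, normalized to RIBOGREEN total RNA and expressed as % untreated control. IC50 came from linear regression on a log/linear plot.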

Setting [1] is: Table 57, 15.6 nM, A-431 cells 10,000 cells per well, 48 hours.
[2] abbreviates: Table 57, 62.5 nM, A-431 cells 10,000 cells per well, 48 hours.
[3] abbreviates: Table 57, 4000.00 nM, A-431 cells 10,000 cells per well, 48 hours.
[4] abbreviates: Table 57, A-431 cells 10,000 cells per well.
Setting [5] is: Table 60, 15.6 nM, A-431 cells 10,000 cells per well, 48 hours.
Where [6] appears, read: Table 60, 62.5 nM, A-431 cells 10,000 cells per well, 48 hours.
Setting [7] is: Table 60, 4000.00 nM, A-431 cells 10,000 cells per well, 48 hours.
The mark [8] stands for this setting: Table 60, A-431 cells 10,000 cells per well.
Where [9] appears, read: Table 59, 15.6 nM, A-431 cells 10,000 cells per well, 48 hours.
Setting [10] is: Table 59, 62.5 nM, A-431 cells 10,000 cells per well, 48 hours.
Where [11] appears, read: Table 59, 4000.00 nM, A-431 cells 10,000 cells per well, 48 hours.
Setting [12] is: Table 59, A-431 cells 10,000 cells per well.
Where [13] appears, read: Table 56, 15.6 nM, A-431 cells 10,000 cells per well, 48 hours.
Setting [14] is: Table 56, 62.5 nM, A-431 cells 10,000 cells per well, 48 hours.
Setting [15] is: Table 56, 4000.00 nM, A-431 cells 10,000 cells per well, 48 hours.
[16] abbreviates: Table 56, A-431 cells 10,000 cells per well.
[17] abbreviates: 15.6 nM, A-431 cells, 10,000 cells per well, approximately 48 hours.
Setting [18] is: 62.5 nM, A-431 cells, 10,000 cells per well, approximately 48 hours.
[19] abbreviates: 4000.00 nM, A-431 cells, 10,000 cells per well, approximately 48 hours.
The mark [20] stands for this setting: A-431 cells, approximately 48 hours, linear regression on log/linear plot.
[21] abbreviates: Table 58, 15.6 nM, A-431 cells 10,000 cells per well, 48 hours.
[22] abbreviates: Table 58, 62.5 nM, A-431 cells 10,000 cells per well, 48 hours.
Setting [23] is: Table 58, 4000.00 nM, A-431 cells 10,000 cells per well, 48 hours.
Setting [24] is: Table 58, A-431 cells 10,000 cells per well.

As to “958506 (kG*k[5mC]*kA*dG*dA*dT*dA*dA*dT*d[5mC]*dG*dA*dG*kA*kT*kT; antisense) [compound 958506]”, the “Yap1 mRNA, % UTC” value under setting [1] is recorded as 80 % UTC; the “Yap1 mRNA, % UTC” value under setting [2] amounted to 55 % UTC; the “Yap1 mRNA, % UTC” value under setting [3] amounted to 10 % UTC. Besides, under setting [4], inhibition was half-maximal at 100 nM (IC50).
Regarding “958793 (k[5mC]*k[5mC]*kG*d[5mC]*dA*dT*dT*dG*d[5mC]*d[5mC]*dT*dA*dA*kG*kA*kG; antisense) [compound 958793]”, the “Yap1 mRNA, % UTC” value by setting is: under setting [5], 88 % UTC; under setting [6], 61 % UTC; under setting [7], 25 % UTC. The IC50 under setting [8] is 200 nM.
Consider “958473 (kG*kT*k[5mC]*dT*d[5mC]*d[5mC]*dT*dT*dA*dG*dA*dT*d[5mC]*k[5mC]*kT*kT; antisense) [compound 958473]”, for which the “Yap1 mRNA, % UTC” value reads like this: under setting [5], 85 % UTC; under setting [6], 60 % UTC; under setting [7], 17 % UTC. Under setting [8], the midpoint of inhibition, the IC50, lay at 100 nM.
With “958616 (kG*kG*kT*dG*dG*dT*d[5mC]*dT*dT*dG*dT*dT*d[5mC]*kT*kT*kA; antisense) [compound 958616]”, the “Yap1 mRNA, % UTC” value is, setting by setting: under setting [1], 78 % UTC; under setting [2], 49 % UTC; under setting [3], 17 % UTC. In addition, the half-inhibitory concentration (IC50) under setting [4] amounted to 100 nM.
Regarding “958562 (k[5mC]*kA*kT*dT*dG*dA*dA*dA*dG*dA*d[5mC]*d[5mC]*d[5mC]*kT*kT*kA; antisense) [compound 958562]”, the “Yap1 mRNA, % UTC” value by setting is: under setting [9], 105 % UTC; under setting [10], 95 % UTC; under setting [11], 28 % UTC. Under setting [12], this substance had an IC50 of 400 nM.
Consider “958538 (kA*kT*k[5mC]*d[5mC]*dA*dG*dG*dG*dT*d[5mC]*dA*dA*dT*kT*kT*kT; antisense) [compound 958538]”, for which the “Yap1 mRNA, % UTC” value amounted to 101 % UTC under setting [5], 77 % UTC under setting [6] and 30 % UTC under setting [7]. Further, the IC50 under setting [8] was determined as 300 nM.
As for “958481 (kG*k[5mC]*kA*dA*d[5mC]*dT*dG*dG*d[5mC]*dT*dT*dA*dT*kG*kG*kA; antisense) [compound 958481]”, the “Yap1 mRNA, % UTC” value under setting [1] came to 86 % UTC; the “Yap1 mRNA, % UTC” value under setting [2] stood at 62 % UTC; the “Yap1 mRNA, % UTC” value under setting [3] worked out at 14 % UTC. The substance also had an IC50 under setting [4] of 100 nM.
For “958536 (kA*kG*kG*dG*dT*d[5mC]*dA*dA*dT*dT*dT*dT*d[5mC]*kA*kG*k[5mC]; antisense) [compound 958536]”, the “Yap1 mRNA, % UTC” value is, setting by setting: under setting [13], 94 % UTC; under setting [14], 67 % UTC; under setting [15], 16 % UTC. The half-inhibitory concentration (IC50) under setting [16] was found to be 140 nM.
With “958500 (kT*k[5mC]*kT*dA*dT*dA*dT*dT*dA*dG*dA*dG*dT*kA*kT*kG) [compound 958500]”, the “Yap1 mRNA, % UTC” value runs as follows: under setting [17], 91 % UTC; under setting [18], 63 % UTC; under setting [19], 16 % UTC. Moreover, the half-maximal inhibitory concentration (IC50) under setting [20] amounted to 100 nM.
The like results for “958650 (kT*k[5mC]*kA*dA*dT*dT*dG*dA*dG*dT*d[5mC]*dT*dG*k[5mC]*kT*kA; antisense) [compound 958650]” were, in that order, 82 % UTC, 51 % UTC, 7 % UTC and 100 nM.
“958761 (kA*kG*kT*d[5mC]*dT*d[5mC]*dA*dA*d[5mC]*dA*dA*d[5mC]*d[5mC]*kT*kT*k[5mC]; antisense) [compound 958761]”: the “Yap1 mRNA, % UTC” value by setting is: under setting [1], 84 % UTC; under setting [2], 73 % UTC; under setting [3], 24 % UTC. For the same substance, under setting [4], half-maximal inhibition (IC50) was put at 200 nM.
For the substance “958598 (k[5mC]*k[5mC]*k[5mC]*dA*dA*dT*dG*d[5mC]*dT*dA*d[5mC]*d[5mC]*d[5mC]*kA*kA*kT; antisense) [compound 958598]”, the “Yap1 mRNA, % UTC” value by setting is: under setting [5], 93 % UTC; under setting [6], 58 % UTC; under setting [7], 19 % UTC. For the same substance, under setting [8], the IC50 worked out at 100 nM.
Consider “958573 (kG*kG*k[5mC]*dA*dA*dA*dT*dT*dA*dT*dA*dG*dG*k[5mC]*kA*k[5mC]; antisense) [compound 958573]”, for which the “Yap1 mRNA, % UTC” value runs as follows: under setting [9], 81 % UTC; under setting [10], 56 % UTC; under setting [11], 8 % UTC. The substance also registered a half-inhibitory concentration (IC50) under setting [12] of 100 nM.
“958579 (kA*kT*k[5mC]*dT*dT*dA*dA*dT*d[5mC]*dT*dG*dT*dG*kG*k[5mC]*kT; antisense) [compound 958579]”: the “Yap1 mRNA, % UTC” value is 85 % UTC (Table 61, 15.6 nM, A-431 cells 10,000 cells per well, 48 hours); 52 % UTC (Table 61, 62.5 nM, A-431 cells 10,000 cells per well, 48 hours); 12 % UTC (Table 61, 4000.00 nM, A-431 cells 10,000 cells per well, 48 hours). The substance also showed an IC50 (Table 61, A-431 cells 10,000 cells per well) of 100 nM.
Consider “958565 (kT*kT*kG*dA*dG*d[5mC]*dA*d[5mC]*dT*dG*dA*dA*dA*kG*kT*kA; antisense) [compound 958565]”, for which the “Yap1 mRNA, % UTC” value reads like this: under setting [17], 83 % UTC; under setting [18], 62 % UTC; under setting [19], 13 % UTC. The same substance displayed an IC50 under setting [20] of 100 nM.
For the substance “958570 (kT*kG*kT*dA*dA*dT*dT*d[5mC]*dA*dT*dA*dT*dA*k[5mC]*k[5mC]*k[5mC]; antisense) [compound 958570]”, the “Yap1 mRNA, % UTC” value was 93 % UTC under setting [17], 60 % UTC under setting [18] and 17 % UTC under setting [19]. The substance further had an IC50 under setting [20] of 100 nM.
In the same order, the values of “958595 (k[5mC]*k[5mC]*kA*d[5mC]*dA*dT*d[5mC]*dA*dA*dG*dG*d[5mC]*dT*kA*kT*kG; antisense) [compound 958595]” are 83 % UTC, 57 % UTC, 16 % UTC and 100 nM.
The like results for “958625 (kT*kG*k[5mC]*dT*dG*dG*dG*dA*dT*dT*dG*dA*dT*kA*kT*kT; antisense) [compound 958625]” were, in that order, 86 % UTC, 59 % UTC, 17 % UTC and 100 nM.
With “958532 (kG*kA*kA*dG*dT*dA*dG*dG*dA*dG*d[5mC]*dA*dA*kG*kT*k[5mC]; antisense) [compound 958532]”, the “Yap1 mRNA, % UTC” value under setting [21] was determined as 88 % UTC; the “Yap1 mRNA, % UTC” value under setting [22] was 44 % UTC; the “Yap1 mRNA, % UTC” value under setting [23] is 7 % UTC. The IC50 under setting [24] was 100 nM.
For the substance “958551 (k[5mC]*kT*k[5mC]*d[5mC]*dT*dG*dT*dA*dG*dA*d[5mC]*dA*d[5mC]*kA*kT*kA; antisense) [compound 958551]”, the “Yap1 mRNA, % UTC” value runs as follows: under setting [1], 95 % UTC; under setting [2], 73 % UTC; under setting [3], 14 % UTC. Under setting [4], this substance yielded an IC50 of 200 nM.
Consider “958727 (kA*kT*k[5mC]*dT*dG*dT*d[5mC]*dA*dG*dT*dT*dA*dT*k[5mC]*k[5mC]*kT; antisense) [compound 958727]”, for which the “Yap1 mRNA, % UTC” value runs as follows: under setting [21], 90 % UTC; under setting [22], 42 % UTC; under setting [23], 8 % UTC. The substance further gave a half-inhibitory concentration (IC50) under setting [24] of 100 nM.
Consider “958377 (antisense kG*k[5mC]*kT*dG*dG*dG*dA*dT*dT*dG*dA*dT*dA*kT*kT*k[5mC]) [compound 958377]”, for which the “Yap1 mRNA, % UTC” value by setting is: under setting [13], 90 % UTC; under setting [14], 60 % UTC; under setting [15], 17 % UTC. In addition, under setting [16], half-maximal inhibition (IC50) required 130 nM.
Take “958373 (antisense kA*kG*kG*dT*dG*d[5mC]*dT*dA*dG*d[5mC]*dT*dG*dG*kT*kG*k[5mC]) [compound 958373]”: the “Yap1 mRNA, % UTC” value under setting [13] was 72 % UTC; the “Yap1 mRNA, % UTC” value under setting [14] was found to be 45 % UTC; the “Yap1 mRNA, % UTC” value under setting [15] amounted to 17 % UTC. Half-maximal inhibition under setting [16] (IC50) was put at 50 nM.
